Reference: ChEMBL document CHEMBL5365543, “Benzamidine Conjugation Converts Expelled Potential Active Agents into Antifungals against Drug-Resistant Fungi” (J Med Chem, 2023)
≈ marks a conversion by molar mass, not a printed value. Calls of active or inactive are those of the source. No cut-off for these calls is given here.

How the values were obtained:
Candida albicans [1] = test: microbe, parasite or virus in culture; assay type: functional; details: DSY654, time 24 hrs
Description: Antifungal activity against efflux pump-deficient Candida albicans DSY654 assessed as inhibition of fungal growth measured after 24 hrs by CLSI based microtiter plate analysis

Candida albicans [2] = test: Antifungal activity against wild-type Candida albicans SC5314 assessed as inhibition of fungal growth measured after 24 hrs by CLSI based microtiter plate analysis; assay type: functional; details: for MIC80: SC5314, read-out: MIC80
[3] = Drug accumulation in wild-type Candida albicans SC5314 at 50 microg/ml incubated for 3 hrs by HPLC analysis; assay type: ADME; details: dose 50 µg/ml

Question: Which results are given for `COc1ccc2c(CCCI)c3[n+](cc2c1OC)CCc1cc2c(cc1-3)OCO2.[I-]`?
Answer: MIC80 (Candida albicans [1]): 16 µg/mL; MIC80 (Candida albicans [2]; Candida albicans): 64 µg/mL

Question: What does the source list for `C=C1C(=O)O[C@@]23CC[C@H]4[C@@](C)(CCC[C@@]4(C)C(=O)O)[C@@H]2CC[C@]1(O)C3`?
Answer: MIC (Candida albicans [2]; Candida albicans, SC5314): > 256 µg/mL; Drug uptake ([3]; BLD = below limit of detection): Bld

Question: Which MIC (Candida albicans [2]; Candida albicans, SC5314) does the source give for `CC1(C)CC[C@]2(C(=O)O)CC[C@]3(C)C(=CC[C@@H]4[C@@]5(C)CC[C@H](O)C(C)(C)[C@@H]5CC[C@]43C)[C@@H]2C1` [OLEANOLIC_ACID] here?
Answer: > 256 µg/mL

Question: And the Drug uptake ([3]; BLD = below limit of detection)?
Answer: Bld

Question: What does the source list for `CC(=O)O[C@H]1C[C@@]2(C)[C@@H](C[C@@H](O)[C@H]3[C@@]4(C)CC[C@@H](O)[C@@H](C)[C@@H]4CC[C@@]32C)/C1=C(\CCC=C(C)C)C(=O)O` [FUSIDIC ACID]?
Answer: MIC (Candida albicans [2]; Candida albicans, SC5314): > 256 µg/mL; Drug uptake ([3]; BLD = below limit of detection): Bld

Question: For `C[C@@]12CC[C@@H]3[C@@](CC[C@H]4[C@@]3(C)CCC[C@@]4(C)C(=O)O)(CC1=O)C2` [ISOSTEVIOL], which Drug uptake ([3]; BLD = below limit of detection) is on record?
Answer: Bld

Question: What does the source list for `CC1(C)CC[C@]2(C(=O)OCCCOc3ccc(C(=N)N)cc3)CC[C@]3(C)C(=CC[C@@H]4[C@@]5(C)CC[C@H](O)C(C)(C)[C@@H]5CC[C@]43C)[C@@H]2C1`?
Answer: MIC80 (Candida albicans [2]; Candida albicans): 4 µg/mL (≈ 6.32 µM); Drug uptake [3]: Active

Question: For `C=C(C)[C@@H]1CC[C@]2(C(=O)O)CC[C@]3(C)[C@H](CC[C@@H]4[C@@]5(C)CC[C@H](O)C(C)(C)[C@@H]5CC[C@]43C)[C@@H]12` [BETULINIC ACID], which MIC (Candida albicans [2]; Candida albicans, SC5314) is on record?
Answer: > 256 µg/mL

Question: What about the Drug uptake ([3]; BLD = below limit of detection) of the same compound?
Answer: Bld

Question: With `C=C1C(=O)[C@@]23CC[C@H]4[C@@](C)(CCC[C@@]4(C)C(=O)O)[C@@H]2CC[C@]1(O)C3` as the compound, how does the MIC (Candida albicans [1]) read?
Answer: 256 µg/mL (≈ 770 µM)

Question: What about the MIC (Candida albicans [2]) of the same compound?
Answer: inactive

Question: And the Drug uptake ([3]; BLD = below limit of detection)?
Answer: Bld

Question: For `C=C1C(=O)[C@@]2(C)CC[C@@H]3[C@]1(CC[C@H]1[C@@]3(C)CCC[C@@]1(C)C(=O)O)C2`, which Drug uptake ([3]; BLD = below limit of detection) is on record?
Answer: Bld

Question: With `O=C(OCCOCCO)c1ccccc1Nc1cccc(C(F)(F)F)c1` [ETOFENAMATE] as the compound, how does the MIC (Candida albicans [1]) read?
Answer: 16 µg/mL (≈ 43.3 µM)

Question: What about the MIC (Candida albicans [2]) of the same compound?
Answer: inactive

Question: Which MIC (Candida albicans [2]; Candida albicans, SC5314) does the source give for `C=C1[C@H](O)[C@@]23CC[C@H]4[C@@](C)(CCC[C@@]4(C)C(=O)O)[C@@H]2CC[C@]1(O)C3` here?
Answer: > 256 µg/mL

Question: And the Drug uptake ([3]; BLD = below limit of detection)?
Answer: Bld

Question: Which MIC80 (Candida albicans [2]; Candida albicans) does the source give for `CC1(C)[C@@H]2CC[C@@]1(C)[C@@H](OC(=O)CCCOc1ccc(C(=N)N)cc1)C2` here?
Answer: 8 µg/mL (≈ 22.3 µM)

Question: And the Drug uptake [3]?
Answer: Active

Question: For `C[C@H]1[C@H](C)CC[C@]2(C(=O)O)CC[C@]3(C)C(=CC[C@@H]4[C@@]5(C)CC[C@H](O)C(C)(C)[C@@H]5CC[C@]43C)[C@H]12` [URSOLIC ACID], which Drug uptake ([3]; BLD = below limit of detection) is on record?
Answer: Bld

Question: With `C=C1[C@H](O)[C@@]23CC[C@H]4[C@@](C)(CCC[C@@]4(C)C(=O)OCCCOc4ccc(C(=N)N)cc4)[C@@H]2CC[C@]1(O)C3` as the compound, how does the MIC80 (Candida albicans [2]; Candida albicans) read?
Answer: 64 µg/mL (≈ 125 µM)

Question: And the Drug uptake [3]?
Answer: Active

Question: With `C=C1C(=O)O[C@@]23CC[C@H]4[C@@](C)(CCC[C@@]4(C)C(=O)OCCCOc4ccc(C(=N)N)cc4)[C@@H]2CC[C@]1(O)C3` as the compound, how does the MIC80 (Candida albicans [2]; Candida albicans) read?
Answer: 32 µg/mL (≈ 61 µM)

Question: What about the Drug uptake [3] of the same compound?
Answer: Active

Question: For `CC1(C)C2CCC1(C)C(O)C2` (stereo not drawn) [BORNEOL], which MIC (Candida albicans [2]; Candida albicans, SC5314) is on record?
Answer: > 256 µg/mL

Question: And the Drug uptake ([3]; BLD = below limit of detection)?
Answer: Bld

Question: Which MIC80 (Candida albicans [2]; Candida albicans) does the source give for `C=C(C)[C@@H]1CC[C@]2(C(=O)OCCCOc3ccc(C(=N)N)cc3)CC[C@]3(C)[C@H](CC[C@@H]4[C@@]5(C)CC[C@H](O)C(C)(C)[C@@H]5CC[C@]43C)[C@@H]12` here?
Answer: 64 µg/mL (≈ 101 µM)

Question: And the Drug uptake [3]?
Answer: Active

Question: For `C=CCc1ccc(O)c(-c2ccc(O)c(CC=C)c2)c1` [HONOKIOL], which MIC (Candida albicans [1]) is on record?
Answer: 4 µg/mL (≈ 15 µM)

Question: And the Drug uptake ([3]; BLD = below limit of detection)?
Answer: Bld

Question: With `O=C(O)c1ccccc1Nc1cccc(C(F)(F)F)c1` [FLUFENAMIC ACID] as the compound, how does the MIC (Candida albicans [2]; Candida albicans, SC5314) read?
Answer: > 256 µg/mL

Question: And the Drug uptake ([3]; BLD = below limit of detection)?
Answer: Bld

Question: Which results are given for `Cc1cc(N)c2ccccc2[n+]1CCCCCI.[I-]`?
Answer: MIC80 (Candida albicans [1]): 128 µg/mL; MIC80 (Candida albicans [2]; Candida albicans): 128 µg/mL
